# In US9566312B2, “Cyclic peptides and use as medicines” (priority 2012, dated 2017):
# Like-named read-outs stand apart in the source and are kept apart here. Starred links: 1 amine or outer side, 2 acyl side, 3 side chain; linkers in the order of their positions; H or OH if unused. Non-standard residues stand in square brackets, D forms with d. Residues, ends and D or L forms follow the SMILES beside them. X31 = C[C@H](CN1C[C@H](C)OC[C@@H]1C)[C@@H](C(=O)[*:2])N(C)[*:1]; X37 = C[C@H](CN1CCC(S(C)(=O)=O)CC1)[C@@H](C(=O)[*:2])N(C)[*:1]; X73 = CO[C@H]1CCN(CCOC[C@@H](C)[C@@H](C(=O)[*:2])N(C)[*:1])C1; X78 = CC(C)N1CCN(CCOC[C@@H](C)[C@@H](C(=O)[*:2])N(C)[*:1])CC1; X62 = COCCN1CCN(CCC[C@@H](C)[C@@H](C(=O)[*:2])N(C)[*:1])CC1; X41 = CC(C)N1CCN(C[C@@H](C)[C@@H](C(=O)[*:2])N(C)[*:1])CC1; X32 = C[C@H](CN1CC2(COC2)C1)[C@@H](C(=O)[*:2])N(C)[*:1]; X65 = C[C@H](CCN1CCCCC1)[C@@H](C(=O)[*:2])N(C)[*:1]; X76 = CO[C@H](CN1CCOCC1)[C@@H](C(=O)[*:2])N(C)[*:1]; MeBmt = C/C=C/C[C@@H](C)[C@@H](O)[C@H](NC)C(=O)O; NMeL = CN[C@@H](CC(C)C)C(=O)O; NMeV = CN[C@H](C(=O)O)C(C)C; dNMeA = CN[C@H](C)C(=O)O; Abu = CC[C@H](N)C(=O)O
# How the values were obtained:
# [1] = target: organic anion transporting polypeptide 1B1 (OATP1B1) (Homo sapiens (Human), UniProt Q9Y6L6); assay: OATP assay in CHO-OATP1B1 cells;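 note: inhibition of probe substrate uptake into the cells, ten minutes exposure, accumulated substrate read by fluorescence once cells were lysed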
# Sequence of organic anion transporting polypeptide 1B1 (OATP1B1) (Q9Y6L6 whole entry): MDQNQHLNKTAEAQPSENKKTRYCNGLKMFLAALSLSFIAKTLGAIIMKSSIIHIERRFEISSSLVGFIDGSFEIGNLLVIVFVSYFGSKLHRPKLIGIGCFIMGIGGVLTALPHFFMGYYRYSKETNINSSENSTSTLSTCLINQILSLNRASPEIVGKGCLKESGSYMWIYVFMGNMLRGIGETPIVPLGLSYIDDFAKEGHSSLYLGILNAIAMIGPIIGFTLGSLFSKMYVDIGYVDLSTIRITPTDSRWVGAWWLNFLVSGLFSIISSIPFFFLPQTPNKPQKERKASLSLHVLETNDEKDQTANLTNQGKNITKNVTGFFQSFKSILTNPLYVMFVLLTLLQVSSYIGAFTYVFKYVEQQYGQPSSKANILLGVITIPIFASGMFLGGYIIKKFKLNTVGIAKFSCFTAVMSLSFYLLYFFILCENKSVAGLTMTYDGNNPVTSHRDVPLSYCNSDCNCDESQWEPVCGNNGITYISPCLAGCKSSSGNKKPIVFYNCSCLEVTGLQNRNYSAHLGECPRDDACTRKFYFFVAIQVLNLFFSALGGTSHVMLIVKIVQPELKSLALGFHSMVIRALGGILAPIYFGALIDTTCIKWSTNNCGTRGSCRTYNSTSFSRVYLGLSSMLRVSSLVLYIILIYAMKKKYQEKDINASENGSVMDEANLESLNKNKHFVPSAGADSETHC
# Procedure: In order to determine whether the compounds of the present invention interact with hepatic transporters, experiments were carried out that compared the concentration-dependent inhibition toward the organic anion transporting polypeptide 1B1 (OATP1B1) and the multidrug resistance associated protein 2 (MRP2).
# The cells were cultured in DMEM/F12 +10% FBS+2 mM Ala-Gln+1% Pen-Strep for a period of two days, and the media was changed one day post-seeding. Prior to the assay, media was aspirated and were washed −3× with HBSS+10 mM HEPES and the solution was equilibrated for 15 min in HBSS+10 mM HEPES. Solutions containing the inhibitor were prepared in HBSS+10 mM HEPES (up to 1% DMSO). […] After 10 min, the substrate or substrate/inhibitor solution was aspirated and the cells were washed 3× with HBSS+10 mM HEPES. The amount of the transported probe substrate was determined by fluorescent photometry after cell lysis, and the IC50 was derived from the concentration-response curve.
# [2] = target: cyclophilin A (CypA) (Homo sapiens (Human), UniProt P62937); assay: Inhibitor binding to cyclophilin proteins by SPR, CypA; parameters: unit not given here; conditions: 1:1 binding model;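 note: Single-cycle kinetics on a Biacore T200, compound injected at several concentrations for 1 min each at 50 µL/min, then 10 min dissociation, in HEPES pH 7.4 buffer with 3% DMSO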
# Sequence of cyclophilin A (CypA) (P62937 whole entry): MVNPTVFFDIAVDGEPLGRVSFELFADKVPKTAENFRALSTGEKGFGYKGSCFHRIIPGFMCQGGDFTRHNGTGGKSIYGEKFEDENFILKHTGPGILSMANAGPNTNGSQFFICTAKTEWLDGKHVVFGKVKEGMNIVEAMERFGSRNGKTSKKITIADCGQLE
# [3] = tested on: peripheral blood mononuclear cells (PBMC); assay: Anti-proliferative or immunosuppressive activity, BrdU incorporation in PHA-stimulated PBMC; type: cell-based; conditions: PHA 3 μg/ml, 60 hour compound treatment; read-out: EMV PBMC IC50
# Procedure, shortened: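 Fresh PBMCs from two donors, 30,000 per well in X-VIVO 15 medium, stimulated with 3 μg/ml PHA to drive T-cell proliferation. Proliferation measured as BrdU incorporation into DNA by BrdU ELISA.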
# [4] = target: CypF (Homo sapiens (Human), UniProt P30405); assay: Inhibitor binding to cyclophilin proteins by SPR, CypF; conditions: 1:1 binding model
# Sequence of CypF (P30405 30-207): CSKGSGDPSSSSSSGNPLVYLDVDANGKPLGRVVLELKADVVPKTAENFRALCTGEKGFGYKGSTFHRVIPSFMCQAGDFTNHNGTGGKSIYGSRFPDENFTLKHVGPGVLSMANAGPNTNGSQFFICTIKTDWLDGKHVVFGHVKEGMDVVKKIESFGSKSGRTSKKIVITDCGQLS
# Procedure, shortened: (§1)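 Running buffer: 10 mM HEPES pH 7.4, 150 mM NaCl, 0.05% P20, 3% DMSO, with compound present. Capture of avi-tagged mono-biotinylated cyclophilin; single-cycle series, 1 min contact, 10 min dissociation. Rates and affinity fitted to a 1:1 interaction model.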
# [5] = target: cyclophilin B (CypB) (Homo sapiens (Human), UniProt P23284); assay: Inhibitor binding to cyclophilin proteins by SPR, CypB; parameters: unit not given here; conditions: 1:1 binding model
# Sequence of cyclophilin B (CypB) (P23284 34-216): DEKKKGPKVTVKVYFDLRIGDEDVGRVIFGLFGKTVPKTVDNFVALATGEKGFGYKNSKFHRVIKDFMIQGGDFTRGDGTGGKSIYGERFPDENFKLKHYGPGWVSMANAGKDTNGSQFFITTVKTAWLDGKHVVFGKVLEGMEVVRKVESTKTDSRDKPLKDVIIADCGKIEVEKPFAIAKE
# Procedure, shortened: as §1
# [6] = tested on: genotype 1b subgenomic HCV replicon in Huh7.5 cells; type: cell-based, hepatitis C virus; conditions: read-out: RPLN-1b IC50
# Procedure, shortened: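 Huh7.5 cells carrying genotype 1b subgenomic HCV replicon with renilla luciferase-neomycin reporter, in phenol red-free DMEM without G418. Luciferase measured after 72 h compound exposure relative to DMSO-treated cells; cytotoxicity (CC50) by Cell Titer-Glo.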
# [7] = genotype 1b replicon, 72 h incubation
SMILES,IC50 [1] [nM],CypA Kd [2],IC50 [3] [µM],CypF Kd [4] [nM],CypB Kd [5],"IC50 [6, 7] [nM]",IC50 [6] [nM]
"C/C=C/C[C@@H](C)[C@@H](O)[C@H]1C(=O)N[C@@H](CC)C(=O)N(C)[C@H](C)C(=O)N(C)[C@@H]([C@H](C)COCCN2CCN(C(C)C)CC2)C(=O)N[C@@H](C(C)C)C(=O)N(C)[C@@H](CC(C)C)C(=O)N[C@@H](C)C(=O)N[C@H](C)C(=O)N(C)[C@@H](CC(C)C)C(=O)N(C)[C@@H](CC(C)C)C(=O)N(C)[C@@H](C(C)C)C(=O)N1C [Compound 2.8.5, 3-[D-Ala]-4-[(2S,3S)-4-(2-(4-isopropylpiperazin-1-yl)ethoxy)-3-methyl-2-(methylamino)butanoyl]-cyclosporin] (cyclo(A[dA][NMeL][NMeL][NMeV][MeBmt][Abu][dNMeA][X78]V[NMeL]))",4400,0.6,8.1,0.4,0.5,98.9,
"C/C=C/C[C@@H](C)[C@@H](O)[C@H]1C(=O)N[C@@H](CC)C(=O)N(C)[C@H](C)C(=O)N(C)[C@@H]([C@H](C)CN2CC3(COC3)C2)C(=O)N[C@@H](C(C)C)C(=O)N(C)[C@@H](CC(C)C)C(=O)N[C@@H](C)C(=O)N[C@H](C)C(=O)N(C)[C@@H](CC(C)C)C(=O)N(C)[C@@H](CC(C)C)C(=O)N(C)[C@@H](C(C)C)C(=O)N1C [Compound 2.5.16, 3-[D-Ala]-4-[(2S,3R)-3-methyl-2-(methylamino)-4-(2-oxa-6-azaspiro[3.3]heptan-6-yl)butanoyl]-cyclosporin] (cyclo(A[dA][NMeL][NMeL][NMeV][MeBmt][Abu][dNMeA][X32]V[NMeL]))",3400,1.4,18,0.7,0.7,10,
"C/C=C/C[C@@H](C)[C@@H](O)[C@H]1C(=O)N[C@@H](CC)C(=O)N(C)[C@H](C)C(=O)N(C)[C@@H]([C@H](C)CCCN2CCC(OC)CC2)C(=O)N[C@@H](C(C)C)C(=O)N(C)[C@@H](CC(C)C)C(=O)N[C@@H](C)C(=O)N[C@H](C)C(=O)N(C)[C@@H](CC(C)C)C(=O)N(C)[C@@H](CC(C)C)C(=O)N(C)[C@@H](C(C)C)C(=O)N1C (stereo in doubt) [Compound 2.19.5, 3-[D-Ala]-4-[(2S,3R)-6-(4-methoxypiperidin-1-yl)-3-methyl-2-(methylamino)hexanoyl]-cyclosporin]",4300,0.7,8.9,0.4,0.5,80,
"C/C=C/C[C@@H](C)[C@@H](O)[C@H]1C(=O)N[C@@H](CC)C(=O)N(C)[C@H](C)C(=O)N(C)[C@@H]([C@@H](CN2CCOCC2)OC)C(=O)N[C@@H](C(C)C)C(=O)N(C)[C@@H](CC(C)C)C(=O)N[C@@H](C)C(=O)N[C@H](C)C(=O)N(C)[C@@H](CC(C)C)C(=O)N(C)[C@@H](CC(C)C)C(=O)N(C)[C@@H](C(C)C)C(=O)N1C [Compound 2.21.1, 3-[D-Ala]-4-[(2S,3R)-3-methoxy-2-(methylamino)-4-morpholinobutanoyl]-cyclosporin] (cyclo(A[dA][NMeL][NMeL][NMeV][MeBmt][Abu][dNMeA][X76]V[NMeL]))",900,2.8,15.7,1.2,1.2,,23
"C/C=C/C[C@@H](C)[C@@H](O)[C@H]1C(=O)N[C@@H](CC)C(=O)N(C)[C@H](C)C(=O)N(C)[C@@H]([C@H](C)CCN2CCCCC2)C(=O)N[C@@H](C(C)C)C(=O)N(C)[C@@H](CC(C)C)C(=O)N[C@@H](C)C(=O)N[C@H](C)C(=O)N(C)[C@@H](CC(C)C)C(=O)N(C)[C@@H](CC(C)C)C(=O)N(C)[C@@H](C(C)C)C(=O)N1C [Compound 2.18.8, 3-[D-Ala]-4-[(2S,3R)-3-methyl-2-(methylamino)-5-(piperidin-1-yl)pentanoyl]-cyclosporin] (cyclo(A[dA][NMeL][NMeL][NMeV][MeBmt][Abu][dNMeA][X65]V[NMeL]))",2300,0.9,1,0.5,0.7,45,
"C/C=C/C[C@@H](C)[C@@H](O)[C@H]1C(=O)N[C@@H](CC)C(=O)N(C)[C@H](C)C(=O)N(C)[C@@H]([C@H](C)CN2C[C@H](C)OC[C@@H]2C)C(=O)N[C@@H](C(C)C)C(=O)N(C)[C@@H](CC(C)C)C(=O)N[C@@H](C)C(=O)N[C@H](C)C(=O)N(C)[C@@H](CC(C)C)C(=O)N(C)[C@@H](CC(C)C)C(=O)N(C)[C@@H](C(C)C)C(=O)N1C [Compound 2.5.6, 3-[D-Ala]-4-[(2S,3R)-4-((2S,5S)-2,5-dimethylmorpholino)-3-methyl-2-(methylamino)butanoyl]-cyclosporin] (cyclo(A[dA][NMeL][NMeL][NMeV][MeBmt][Abu][dNMeA][X31]V[NMeL]))",2600,5.0,3.4,2.5,2.7,35,
"C/C=C/C[C@@H](C)[C@@H](O)[C@H]1C(=O)N[C@@H](CC)C(=O)N(C)[C@H](C)C(=O)N(C)[C@@H]([C@H](C)COCCN2CC[C@H](OC)C2)C(=O)N[C@@H](C(C)C)C(=O)N(C)[C@@H](CC(C)C)C(=O)N[C@@H](C)C(=O)N[C@H](C)C(=O)N(C)[C@@H](CC(C)C)C(=O)N(C)[C@@H](CC(C)C)C(=O)N(C)[C@@H](C(C)C)C(=O)N1C [Compound 2.8.7, 3-[D-Ala]-4-[(2S,3S)-4-(2-((S)-3-methoxypyrrolidin-1-yl)ethoxy)-3-methyl-2-(methylamino)butanoyl]-cyclosporin] (cyclo(A[dA][NMeL][NMeL][NMeV][MeBmt][Abu][dNMeA][X73]V[NMeL]))",5000,0.6,6.8,0.3,0.4,45,
"C/C=C/C[C@@H](C)[C@@H](O)[C@H]1C(=O)N[C@@H](CC)C(=O)N(C)[C@H](C)C(=O)N(C)[C@@H]([C@H](C)CCCN2CCN(CCOC)CC2)C(=O)N[C@@H](C(C)C)C(=O)N(C)[C@@H](CC(C)C)C(=O)N[C@@H](C)C(=O)N[C@H](C)C(=O)N(C)[C@@H](CC(C)C)C(=O)N(C)[C@@H](CC(C)C)C(=O)N(C)[C@@H](C(C)C)C(=O)N1C [Compound 2.19.6, 3-[D-Ala]-4-[(2S,3R)-6-(4-(2-methoxyethyl)piperazin-1-yl)-3-methyl-2-(methylamino)hexanoyl]-cyclosporin] (cyclo(A[dA][NMeL][NMeL][NMeV][MeBmt][Abu][dNMeA][X62]V[NMeL]))",2200,0.7,1.6,0.5,0.7,110,
"C/C=C/C[C@@H](C)[C@@H](O)[C@H]1C(=O)N[C@@H](CC)C(=O)N(C)[C@H](C)C(=O)N(C)[C@@H]([C@H](C)CN2CCN(C(C)C)CC2)C(=O)N[C@@H](C(C)C)C(=O)N(C)[C@@H](CC(C)C)C(=O)N[C@@H](C)C(=O)N[C@H](C)C(=O)N(C)[C@@H](CC(C)C)C(=O)N(C)[C@@H](CC(C)C)C(=O)N(C)[C@@H](C(C)C)C(=O)N1C [Compound 2.5.12, 3-[D-Ala]-4[(2S,3R)-2-Amino-4-(4-isopropyl-piperazin-1-yl)-butanoyl]-cyclosporin] (cyclo(A[dA][NMeL][NMeL][NMeV][MeBmt][Abu][dNMeA][X41]V[NMeL]))",2440,1.0,3.1,0.4,0.7,44,
"C/C=C/C[C@@H](C)[C@@H](O)[C@H]1C(=O)N[C@@H](CC)C(=O)N(C)[C@H](CCCO)C(=O)N(C)[C@@H]([C@H](C)CS(C)(=O)=O)C(=O)N[C@@H](C(C)C)C(=O)N(C)[C@@H](CC(C)C)C(=O)N[C@@H](C)C(=O)N[C@H](C)C(=O)N(C)[C@@H](CC(C)C)C(=O)N(C)[C@@H](CC(C)C)C(=O)N(C)[C@@H](C(C)C)C(=O)N1C (stereo in doubt) [Compound 3.4.1, 3-[(R)-5-hydroxy-2-(methylamino)pentanoyl]-4-[(2S,3S)-3-methyl-2-(methylamino)-4-(methylsulfonyl)butanoyl]-cyclosporin]",2700,7.0,5.8,3.8,2.8,4500,
"C/C=C/C[C@@H](C)[C@@H](O)[C@H]1C(=O)N[C@@H](CC)C(=O)N(C)[C@H](C)C(=O)N(C)[C@@H]([C@H](C)CN2CCC(S(C)(=O)=O)CC2)C(=O)N[C@@H](C(C)C)C(=O)N(C)[C@@H](CC(C)C)C(=O)N[C@@H](C)C(=O)N[C@H](C)C(=O)N(C)[C@@H](CC(C)C)C(=O)N(C)[C@@H](CC(C)C)C(=O)N(C)[C@@H](C(C)C)C(=O)N1C [Compound 2.5.20, 3-[D-Ala]-4-[(2S,3R)-3-methyl-2-(methylamino)-4-(4-(methylsulfonyl)piperidin-1-yl)butanoyl]-cyclosporin] (cyclo(A[dA][NMeL][NMeL][NMeV][MeBmt][Abu][dNMeA][X37]V[NMeL]))",1800,3.7,29.2,1.6,1.2,109,
